Like-named read-outs stand apart in the source and are kept apart here.
Tests used:
Test in all cases: cell-based
system xc- (H4) [1] = target: T1, system xc- (H4) (Homo sapiens, UniProt Q9UPY5); set-up: cystine-induced glutamate release inhibition, 30 min, PBS with Na+; details: PBS (+Na+), 30 min; read-out: Glutamate Release H4
T1 construct: gene SLC7A11; native endogenous transporter in intact H4 neuroglioma cells
T1 sequence (Q9UPY5 1-501): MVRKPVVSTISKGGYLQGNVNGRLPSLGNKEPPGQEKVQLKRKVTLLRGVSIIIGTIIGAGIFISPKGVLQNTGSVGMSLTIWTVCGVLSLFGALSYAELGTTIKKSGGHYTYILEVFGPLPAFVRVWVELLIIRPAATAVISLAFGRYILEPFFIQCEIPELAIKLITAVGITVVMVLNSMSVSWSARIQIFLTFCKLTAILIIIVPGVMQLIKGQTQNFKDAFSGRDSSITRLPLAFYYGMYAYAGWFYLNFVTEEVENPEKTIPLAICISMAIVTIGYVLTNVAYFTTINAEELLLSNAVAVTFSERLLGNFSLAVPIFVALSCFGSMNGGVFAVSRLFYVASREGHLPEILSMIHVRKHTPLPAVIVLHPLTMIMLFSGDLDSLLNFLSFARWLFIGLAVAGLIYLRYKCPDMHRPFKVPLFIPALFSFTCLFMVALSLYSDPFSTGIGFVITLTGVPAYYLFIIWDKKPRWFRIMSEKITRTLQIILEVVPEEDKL
T1 sequence (P08195 1-529 partner): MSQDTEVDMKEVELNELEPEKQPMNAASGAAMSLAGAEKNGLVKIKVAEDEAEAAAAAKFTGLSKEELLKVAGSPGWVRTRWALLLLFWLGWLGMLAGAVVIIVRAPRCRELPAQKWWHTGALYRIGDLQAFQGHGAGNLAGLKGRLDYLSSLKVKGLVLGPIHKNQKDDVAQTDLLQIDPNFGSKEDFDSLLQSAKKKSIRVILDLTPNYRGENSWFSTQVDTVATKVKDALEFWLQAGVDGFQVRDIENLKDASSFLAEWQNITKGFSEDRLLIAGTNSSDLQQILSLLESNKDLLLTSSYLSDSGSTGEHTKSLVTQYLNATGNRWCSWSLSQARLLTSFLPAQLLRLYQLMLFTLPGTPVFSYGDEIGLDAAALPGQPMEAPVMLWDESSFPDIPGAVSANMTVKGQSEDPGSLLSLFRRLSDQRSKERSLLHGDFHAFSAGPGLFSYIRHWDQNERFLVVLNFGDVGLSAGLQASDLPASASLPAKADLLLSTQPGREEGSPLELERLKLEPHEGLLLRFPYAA
Description: Early characterization of the cystine-induced glutamate release assay was carried out in the 96-well format and later adapted to the 384-well format. Briefly, CCF-STTG-1 cells were seeded at 0.04 x 10^6 cells per 96-well and grown to confluence. […] Cells were maintained for 2h at 37°C in an incubator with 5% CO2. At the end of the incubation period, cystine-induced glutamate release was measured directly. The assay was further characterized for the dependence of cystine-induced glutamate release on protein content (mg/ml) and the time of incubation. […] Cells were maintained at 37°C in an incubator with 5% CO2 and the glutamate released over a 2h period measured. Identical protocols were followed for IC50 determinations using UB or PBS with CCF-STTG-1, neuroglioma (H4) or fibroblast (IMR-90) cells. U-87 MG cells were seeded at 0.06 x 10^6 cells per 96-well (in 0.3 ml growth media) and tested on Day2. When running the assay in the 384-well format, CCF-STTG-1 cells were seeded at 0.01 x 10^6 cells per well (in 0.025 ml growth media) and grown to confluence. […] Cells were maintained for 3h at 37°C in an incubator with 5% CO2. At the end of the incubation period, cystine-induced glutamate release was measured directly. […]

system xc- (IMR90) [2] = target: T2, system xc- (IMR90) (Homo sapiens, UniProt Q9UPY5); set-up: species or system IMR-90; cystine-induced glutamate release inhibition, 30 min, PBS with Na+; details: PBS (+Na+), 30 min; read-out: Glutamate Release IMR90
T2 construct: gene SLC7A11; native endogenous transporter in intact IMR-90 fibroblasts
T2 sequence (Q9UPY5 1-501): T1 sequence (Q9UPY5 1-501)
T2 sequence (P08195 1-529 partner): T1 sequence (P08195 1-529 partner)
Description: Early characterization of the cystine-induced glutamate release assay was carried out in the 96-well format and later adapted to the 384-well format. Briefly, CCF-STTG-1 cells were seeded at 0.04 x 10^6 cells per 96-well and grown to confluence. […] Cells were maintained for 2h at 37°C in an incubator with 5% CO2. At the end of the incubation period, cystine-induced glutamate release was measured directly. The assay was further characterized for the dependence of cystine-induced glutamate release on protein content (mg/ml) and the time of incubation. […] Cells were maintained at 37°C in an incubator with 5% CO2 and the glutamate released over a 2h period measured. Identical protocols were followed for IC50 determinations using UB or PBS with CCF-STTG-1, neuroglioma (H4) or fibroblast (IMR-90) cells. U-87 MG cells were seeded at 0.06 x 10^6 cells per 96-well (in 0.3 ml growth media) and tested on Day2. When running the assay in the 384-well format, CCF-STTG-1 cells were seeded at 0.01 x 10^6 cells per well (in 0.025 ml growth media) and grown to confluence. […] Cells were maintained for 3h at 37°C in an incubator with 5% CO2. At the end of the incubation period, cystine-induced glutamate release was measured directly. The rates of [^14C]-cystine influx and cystine-induced glutamate efflux were closely examined using CCF-STTG-1 (grade IV astrocytoma) cells in order to understand the reasons for the lower IC50 values and longer time-dependence in the cystine-induced glutamate release assay. […] The experiments were repeated also using IMR-90 fibroblast cells derived from normal embryonic lung and a second cancer line, the H4 neuroglioma cells. […] (DOCX) Click here for additional data file.

system xc- (H4) [3] = target: T1, system xc- (H4); set-up: [14C]-cystine uptake inhibition, 2 min, PBS with Na+, scintillation counting; details: PBS (+Na+), 2 min
Description: Early characterization work was carried out in a 12-well format and the assay later adapted and characterized in the 96-well format. Briefly, CCF-STTG-1 cells were seeded at 0.04 x 10^6 cells per well in 0.2 ml growth media and grown to confluence. […] After 15 min, uptake was terminated by three washes (115 μl/well) with ice-cold UB. Cells were then lysed with 0.1 N NaOH (100 μl/well) and the radioactivity in the cells measured using scintillant-coated 96-well plates (PerkinElmer: 6005630) and normalized to protein contents. The assay was further characterized for the dependence of ^14C-cystine uptake on protein content (mg/ml) and the time and temperature of incubation. To determine IC50 values, CCF-STTG-1 cells were similarly seeded and grown to confluence. On day 3, transport was initiated upon the addition of pre-warmed (37°C) [^14C]-cystine 80 μM (5.631 μCi/μmol) in Earle’s Balanced Salt Solution (EBSS, Sigma: E3024, contents in mM: NaCl 116.4, NaHCO3 26.2, NaH2PO4 1.02, KCl 5.36, MgSO4 0.81, CaCl2 1.8 and Glucose 5.56, pH 7.4) in the presence and absence of inhibitors. […]

system xc- (IMR90) [4] = target: T2, system xc- (IMR90); set-up: species or system IMR-90; [14C]-cystine uptake inhibition, 2 min, PBS with Na+, scintillation counting; details: PBS (+Na+), 2 min
Description: Early characterization work was carried out in a 12-well format and the assay later adapted and characterized in the 96-well format. Briefly, CCF-STTG-1 cells were seeded at 0.04 x 10^6 cells per well in 0.2 ml growth media and grown to confluence. […] Cells were then lysed with 0.1 N NaOH (100 μl/well) and the radioactivity in the cells measured using scintillant-coated 96-well plates (PerkinElmer: 6005630) and normalized to protein contents. The assay was further characterized for the dependence of ^14C-cystine uptake on protein content (mg/ml) and the time and temperature of incubation. To determine IC50 values, CCF-STTG-1 cells were similarly seeded and grown to confluence. On day 3, transport was initiated upon the addition of pre-warmed (37°C) [^14C]-cystine 80 μM ([…], Sigma: E3024, contents in mM: NaCl 116.4, NaHCO3 26.2, NaH2PO4 1.02, KCl 5.36, MgSO4 0.81, CaCl2 1.8 and Glucose 5.56, pH 7.4) in the presence and absence of inhibitors. […] Identical protocols were followed for IC50 determinations using UB or phosphate buffered saline (PBS; contents in mM: S1 Table) with […] The rates of [^14C]-cystine influx and cystine-induced glutamate efflux were closely examined using CCF-STTG-1 (grade IV astrocytoma) cells in order to understand the reasons for the lower IC50 values and longer time-dependence in the cystine-induced glutamate release assay. […]

IC50 (system xc- (H4) [1]) [µM] | IC50 (system xc- (IMR90) [2]) [µM] | IC50 (system xc- (H4) [3]) [µM] | IC50 (system xc- (IMR90) [4]) [µM] | Structure (SMILES)
> 100 | > 100 |  |  | N[C@@H](C(=O)O)c1ccc(C(=O)O)cc1 [(R)-4CPG]
 | 2 ± 0.4 | 20 ± 0.4 |  | N[C@H](C(=O)O)c1ccc(C(=O)O)cc1 [(S)-4CPG]
 | 3 ± 0.2 |  |  | O=C(O)c1cc(/N=N/c2ccc(S(=O)(=O)Nc3ccccn3)cc2)ccc1O [SAS]
 |  | 200 ± 20 | 200 ± 3 | N[C@@H](CCC(=O)O)C(=O)O [glutamate]

Source: paper PMC4529246 (PLoS ONE, 2015)
